Reference: patent US20250346597A1, “CONDENSED HETEROCYCLIC COMPOUNDS AS INHIBITOR OF DIACYLGLYCEROL KINASES” (BEONE MEDICINES I GMBH, priority 2023, published 2025)

Assays:
DGKζ = DGKζ (Homo sapiens (Human), UniProt Q13574); test: Biochemical DGK IC50 assay (ADP-Glo, lipid micelle substrate), DGKζ; conditions: full length DGKζ 0.5 nM, ATP 140 μM, DAG 80 μM
Procedure, shortened: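 ADP-Glo luminescence measured ADP made in a 1 h room-temperature reaction. The enzyme was Sf9-expressed, purified full-length human DGKζ, and the substrate was DAG/PS micelles. Assay buffer held 50 mM HEPES, 10 mM MgCl2, 0.01 mM CaCl2, 0.1 mM Na3VO4 and 0.01% BSA. IC50 was derived from activity inhibition over a compound concentration series.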

DGKα = DGKα (Homo sapiens (Human), UniProt P23743); test: Biochemical DGK IC50 assay (ADP-Glo, lipid micelle substrate), DGKα; conditions: full length DGKα […], ATP 140 μM, DAG 80 μM; note: full length DGKα 7.5 nM
Procedure, shortened: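 Luminescent ADP-Glo detection followed a 1 h room-temperature reaction of full-length DGKα on DAG/PS micelles, in HEPES buffer with 10 mM MgCl2, 0.01 mM CaCl2, 0.1 mM Na3VO4, BSA and Tween-20. IC50 derived from inhibition across increasing compound concentrations.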

Chain of DGKα (P23743 whole entry): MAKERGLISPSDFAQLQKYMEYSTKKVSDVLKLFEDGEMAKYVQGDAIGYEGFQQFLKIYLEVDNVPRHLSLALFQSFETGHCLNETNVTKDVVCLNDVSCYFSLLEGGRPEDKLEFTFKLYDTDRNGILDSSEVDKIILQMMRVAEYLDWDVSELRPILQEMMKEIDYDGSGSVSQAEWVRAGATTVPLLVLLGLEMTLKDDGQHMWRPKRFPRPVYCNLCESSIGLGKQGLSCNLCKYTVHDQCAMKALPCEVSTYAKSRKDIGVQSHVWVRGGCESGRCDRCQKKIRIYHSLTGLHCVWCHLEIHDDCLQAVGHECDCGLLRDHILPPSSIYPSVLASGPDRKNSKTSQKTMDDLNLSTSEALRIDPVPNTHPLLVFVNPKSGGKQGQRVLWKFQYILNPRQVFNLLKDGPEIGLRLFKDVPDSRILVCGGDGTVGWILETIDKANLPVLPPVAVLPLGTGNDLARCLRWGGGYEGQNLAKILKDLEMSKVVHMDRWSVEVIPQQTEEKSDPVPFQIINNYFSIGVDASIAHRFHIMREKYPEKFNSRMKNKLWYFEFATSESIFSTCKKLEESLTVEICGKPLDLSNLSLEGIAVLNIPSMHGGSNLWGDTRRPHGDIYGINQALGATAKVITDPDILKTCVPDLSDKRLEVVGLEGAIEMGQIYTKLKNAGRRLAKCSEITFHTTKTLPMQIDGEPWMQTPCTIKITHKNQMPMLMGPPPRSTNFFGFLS
Chain of DGKζ (Q13574 other isoform, or with tags, fused parts or gaps): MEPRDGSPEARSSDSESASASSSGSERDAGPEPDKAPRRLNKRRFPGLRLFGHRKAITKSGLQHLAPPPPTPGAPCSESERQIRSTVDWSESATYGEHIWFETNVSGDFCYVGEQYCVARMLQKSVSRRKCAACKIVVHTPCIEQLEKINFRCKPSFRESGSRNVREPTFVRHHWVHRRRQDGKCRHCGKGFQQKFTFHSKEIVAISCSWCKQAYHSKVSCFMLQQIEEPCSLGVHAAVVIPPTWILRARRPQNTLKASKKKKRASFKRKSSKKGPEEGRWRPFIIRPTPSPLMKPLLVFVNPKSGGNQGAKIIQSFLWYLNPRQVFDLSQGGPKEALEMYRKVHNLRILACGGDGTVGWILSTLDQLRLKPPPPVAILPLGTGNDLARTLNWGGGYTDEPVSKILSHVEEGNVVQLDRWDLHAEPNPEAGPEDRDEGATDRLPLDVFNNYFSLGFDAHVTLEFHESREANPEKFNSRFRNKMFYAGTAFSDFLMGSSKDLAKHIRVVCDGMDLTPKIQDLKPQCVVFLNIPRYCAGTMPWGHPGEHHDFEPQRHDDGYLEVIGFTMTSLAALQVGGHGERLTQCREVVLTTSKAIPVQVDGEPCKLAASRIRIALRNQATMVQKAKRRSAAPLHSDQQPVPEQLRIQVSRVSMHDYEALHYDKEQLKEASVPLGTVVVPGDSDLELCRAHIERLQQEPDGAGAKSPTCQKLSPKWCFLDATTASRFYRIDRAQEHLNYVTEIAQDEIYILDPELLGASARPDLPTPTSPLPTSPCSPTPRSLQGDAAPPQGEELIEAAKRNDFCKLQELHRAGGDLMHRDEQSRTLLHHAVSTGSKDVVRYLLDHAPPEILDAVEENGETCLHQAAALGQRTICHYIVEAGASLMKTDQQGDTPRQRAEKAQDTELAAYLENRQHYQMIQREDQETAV

| IC50 (DGKζ) [nM] | IC50 (DGKα) [nM] | Compound |
| --- | --- | --- |
| 20 | 1140 | Cc1cc2nc(C(C)N3C[C@H](C)N(c4cc(=O)n(C)c5cn(CC#N)nc45)C[C@H]3C)ccc2s1 (single isomer, unassigned) [Compound A155a] |
| 1970 | 139 | Cc1cc2nc(C(C)N3C[C@H](C)N(c4cc(=O)n(C)c5cn(CC#N)nc45)C[C@H]3C)ccc2s1 (single isomer, unassigned) [Compound A155b] |
| 5130 | > 10000 | CC[C@H]1CN(C(C)c2ccn3nc(C)c(C)c3n2)[C@H](CC)CN1c1cc(=O)n(C)c2cn(CC#N)nc12 (single isomer, unassigned) [Compound A156a] |
| 23 | 310 | CC[C@H]1CN(C(C)c2ccn3nc(C)c(C)c3n2)[C@H](CC)CN1c1cc(=O)n(C)c2cn(CC#N)nc12 (single isomer, unassigned) [Compound A156b] |
| > 10000 | > 10000 | CC[C@H]1CN(C(C)c2ccn3nc(C)cc3n2)[C@H](CC)CN1c1nc(=O)n(C)c2cn(CC#N)nc12 (single isomer, unassigned) [Compound A157a] |
| 166 | 183 | CC[C@H]1CN(C(C)c2ccn3nc(C)cc3n2)[C@H](CC)CN1c1nc(=O)n(C)c2cn(CC#N)nc12 (single isomer, unassigned) [Compound A157b] |
| > 10000 | 330 | CC[C@H]1CN(C(C)c2ccn3nc(F)cc3n2)[C@H](CC)CN1c1cc(=O)n(C)c2cn(CC#N)nc12 (single isomer, unassigned) [Compound A158a] |
| 91 | 21 | CC[C@H]1CN(C(C)c2ccn3nc(F)cc3n2)[C@H](CC)CN1c1cc(=O)n(C)c2cn(CC#N)nc12 (single isomer, unassigned) [Compound A158b] |
| 56 | 38 | CC[C@H]1CN(C(C)c2ccn3nccc3c2)[C@H](CC)CN1c1nc(=O)n(C)c2cn(CC#N)nc12 (single isomer, unassigned) [Compound A159a] |
| 1120 | 40 | CC[C@H]1CN(C(C)c2ccn3nccc3c2)[C@H](CC)CN1c1nc(=O)n(C)c2cn(CC#N)nc12 (single isomer, unassigned) [Compound A159b] |
| 4120 | 5970 | CC[C@H]1CN(C(C)c2ccn3nc(C)c(F)c3n2)[C@H](CC)CN1c1cc(=O)n(C)c2cn(CC#N)nc12 (single isomer, unassigned) [Compound A160a] |
| 15 | 47 | CC[C@H]1CN(C(C)c2ccn3nc(C)c(F)c3n2)[C@H](CC)CN1c1cc(=O)n(C)c2cn(CC#N)nc12 (single isomer, unassigned) [Compound A160b] |
| > 10000 | > 10000 | CC[C@H]1CN(C(C)c2ccn3ncc(F)c3n2)[C@H](CC)CN1c1cc(=O)n(C)c2cn(CC#N)nc12 (single isomer, unassigned) [Compound A161a] |
| 18 | 32 | CC[C@H]1CN(C(C)c2ccn3ncc(F)c3n2)[C@H](CC)CN1c1cc(=O)n(C)c2cn(CC#N)nc12 (single isomer, unassigned) [Compound A161b] |
| 51 | 104 | CC[C@H]1CN(C(C)c2ccn3nc(C)cc3c2)[C@H](CC)CN1c1cc(=O)n(C)c2cn(CC#N)nc12 (single isomer, unassigned) [Compound A162a] |
| 3270 | 2430 | CC[C@H]1CN(C(C)c2ccn3nc(C)cc3c2)[C@H](CC)CN1c1cc(=O)n(C)c2cn(CC#N)nc12 (single isomer, unassigned) [Compound A162b] |
| > 10000 | 1900 | CC[C@H]1CN(C(C)c2ccn3nccc3n2)[C@H](CC)CN1c1nc(=O)n(C)c2cn(CC#N)nc12 (single isomer, unassigned) [Compound A163a] |
| 426 | 71 | CC[C@H]1CN(C(C)c2ccn3nccc3n2)[C@H](CC)CN1c1nc(=O)n(C)c2cn(CC#N)nc12 (single isomer, unassigned) [Compound A163b] |
| > 10000 | 7300 | CC[C@H]1CN(C(C)c2ccn3ncc(F)c3n2)[C@H](CC)CN1c1nc(=O)n(C)c2cn(CC#N)nc12 (single isomer, unassigned) [Compound A164a] |
| 88 | 134 | CC[C@H]1CN(C(C)c2ccn3ncc(F)c3n2)[C@H](CC)CN1c1nc(=O)n(C)c2cn(CC#N)nc12 (single isomer, unassigned) [Compound A164b] |
| 12 | 96 | CC[C@H]1CN(C(C)c2ccn3ncc(F)c3c2)[C@H](CC)CN1c1cc(=O)n(C)c2cn(CC#N)nc12 (single isomer, unassigned) [Compound A165a] |

Further lines, the molecule ahead of its results:

| Compound | IC50 (DGKζ) [nM] | IC50 (DGKα) [nM] |
| --- | --- | --- |
| CC[C@H]1CN(C(C)c2ccc3cc(C(F)F)sc3n2)[C@H](CC)CN1c1cc(=O)n(C)c2cn(CC#N)nc12 (single isomer, unassigned) [Compound A144a] | 1300 | 270 |
| CC[C@H]1CN(C(C)c2ccc3cc(C(F)F)sc3n2)[C@H](CC)CN1c1cc(=O)n(C)c2cn(CC#N)nc12 (single isomer, unassigned) [Compound A144b] | 135 | 18 |
| CC[C@H]1CN(C(C)c2ccc3nc(COC)sc3c2)[C@H](CC)CN1c1cc(=O)n(C)c2cn(CC#N)nc12 (single isomer, unassigned) [Compound A145a] | 47 | 545 |
| CC[C@H]1CN(C(C)c2ccc3nc(COC)sc3c2)[C@H](CC)CN1c1cc(=O)n(C)c2cn(CC#N)nc12 (single isomer, unassigned) [Compound A145b] | 939 | 3350 |
| CC[C@H]1CN(C(C)c2ccc3nc(OC4CC4)sc3n2)[C@H](CC)CN1c1cc(=O)n(C)c2cn(CC#N)nc12 (single isomer, unassigned) [Compound A146a] | 1750 | 2400 |
| CC[C@H]1CN(C(C)c2ccc3nc(OC4CC4)sc3n2)[C@H](CC)CN1c1cc(=O)n(C)c2cn(CC#N)nc12 (single isomer, unassigned) [Compound A146b] | 104 | 205 |
| CC[C@H]1CN(C(C)c2ccc3nc(OCCF)sc3n2)[C@H](CC)CN1c1cc(=O)n(C)c2cn(CC#N)nc12 (single isomer, unassigned) [Compound A147a] | 152 | 180 |
| CC[C@H]1CN(C(C)c2ccc3nc(OCCF)sc3n2)[C@H](CC)CN1c1cc(=O)n(C)c2cn(CC#N)nc12 (single isomer, unassigned) [Compound A147b] | 1510 | 1570 |
| CC[C@H]1CN(C(C)c2ccc3cc(C(F)F)sc3n2)[C@H](CC)CN1c1nc(=O)n(C)c2cn(CC#N)nc12 (single isomer, unassigned) [Compound A148a] | 2310 | 1280 |
| CC[C@H]1CN(C(C)c2ccc3cc(C(F)F)sc3n2)[C@H](CC)CN1c1nc(=O)n(C)c2cn(CC#N)nc12 (single isomer, unassigned) [Compound A148b] | 45 | 36 |
| CC[C@H]1CN(C(C)c2ccc3nc(C)cn3n2)[C@H](CC)CN1c1cc(=O)n(C)c2cn(CC#N)nc12 (single isomer, unassigned) [Compound A149a] | 2720 | 1110 |
| CC[C@H]1CN(C(C)c2ccc3nc(C)cn3n2)[C@H](CC)CN1c1cc(=O)n(C)c2cn(CC#N)nc12 (single isomer, unassigned) [Compound A149b] | 93 | 43 |
| CC[C@H]1CN(C(C)c2ccc3nc(C)cn3n2)[C@H](CC)CN1c1nc(=O)n(C)c2cn(CC#N)nc12 (single isomer, unassigned) [Compound A150a] | > 10000 | 7140 |
| CC[C@H]1CN(C(C)c2ccc3nc(C)cn3n2)[C@H](CC)CN1c1nc(=O)n(C)c2cn(CC#N)nc12 (single isomer, unassigned) [Compound A150b] | 267 | 124 |
| CC[C@H]1CN(C(C)c2ccn3ncc(C)c3n2)[C@H](CC)CN1c1cc(=O)n(C)c2cn(CC#N)nc12 (single isomer, unassigned) [Compound A151a] | 4610 | 7320 |
| CC[C@H]1CN(C(C)c2ccn3ncc(C)c3n2)[C@H](CC)CN1c1cc(=O)n(C)c2cn(CC#N)nc12 (single isomer, unassigned) [Compound A151b] | 7.5 | 156 |
| CC[C@H]1CN(C(C)c2ccn3nc(C)cc3n2)[C@H](CC)CN1c1cc(=O)n(C)c2cn(CC#N)nc12 (single isomer, unassigned) [Compound A152a] | 3090 | 1910 |
| CC[C@H]1CN(C(C)c2ccn3nc(C)cc3n2)[C@H](CC)CN1c1cc(=O)n(C)c2cn(CC#N)nc12 (single isomer, unassigned) [Compound A152b] | 65.5 | 45 |
| CCc1cn2nc(C(C)N3C[C@H](CC)N(c4cc(=O)n(C)c5cn(CC#N)nc45)C[C@H]3CC)ccc2n1 (single isomer, unassigned) [Compound A153a] | > 10000 | 2720 |
| CCc1cn2nc(C(C)N3C[C@H](CC)N(c4cc(=O)n(C)c5cn(CC#N)nc45)C[C@H]3CC)ccc2n1 (single isomer, unassigned) [Compound A153b] | 195 | 72 |
| CC[C@H]1CN(C(C)c2ccn3nccc3n2)[C@H](CC)CN1c1cc(=O)n(C)c2cn(CC#N)nc12 (single isomer, unassigned) [Compound A154a] | > 10000 | 505 |
| CC[C@H]1CN(C(C)c2ccn3nccc3n2)[C@H](CC)CN1c1cc(=O)n(C)c2cn(CC#N)nc12 (single isomer, unassigned) [Compound A154b] | 55 | 12 |
